The text below walks through data of BindingDB's records for doi:10.1080/14756360701810207 (Gyeongsang National University, 2008).

Several values for one entry are separate records, joined by “and”; a condition that tells them apart may be missing. Equal entries are not always repeated. A value given as a limit tells only on which side of the number the result lay.

This test deals with T1, Polyphenol oxidase 2 (Agaricus bisporus, UniProt O42713).
T1 sequence (O42713 whole entry): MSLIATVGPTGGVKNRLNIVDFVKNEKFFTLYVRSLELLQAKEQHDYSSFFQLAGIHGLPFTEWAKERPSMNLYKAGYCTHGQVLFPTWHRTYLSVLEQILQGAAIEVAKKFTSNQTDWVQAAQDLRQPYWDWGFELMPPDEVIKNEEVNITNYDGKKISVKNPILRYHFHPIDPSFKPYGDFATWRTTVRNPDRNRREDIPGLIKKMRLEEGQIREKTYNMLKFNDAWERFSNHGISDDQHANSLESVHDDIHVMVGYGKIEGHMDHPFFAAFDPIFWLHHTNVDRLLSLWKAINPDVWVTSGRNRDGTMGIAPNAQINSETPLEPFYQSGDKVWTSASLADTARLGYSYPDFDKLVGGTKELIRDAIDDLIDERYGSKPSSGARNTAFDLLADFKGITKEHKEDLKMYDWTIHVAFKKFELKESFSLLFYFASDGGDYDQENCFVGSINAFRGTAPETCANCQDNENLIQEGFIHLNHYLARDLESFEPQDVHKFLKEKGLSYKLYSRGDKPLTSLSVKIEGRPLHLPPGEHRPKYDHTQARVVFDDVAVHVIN
Briefly: Tyrosinase Assay. The settings on record: 30 °C. From the text:
Mushroom tyrosinase using either L-DOPA or L-tyrosine as substrate. In spectrophotometric experiments, enzyme activity was monitored by dopachrome formation at 475 nm with a UV-Vis spectrophotometer (Spectro UV-Vis Double beam; UVD-3500, Labomed, Inc.) at 30 C.
In the case of `C/C(=C\Cc1c(-c2ccc(O)cc2O)oc2c3c(cc(O)c2c1=O)OC(C)(CO)C=C3)CO` (stereo not drawn) [Mormin, 1], the IC50 was 87.8 µM and 215 µM; the inhibition constant Ki is 49.2 µM. As to `CC(C)=CC1Oc2cc(O)ccc2-c2oc3c4c(cc(O)c3c(=O)c21)OC(C)(C)C=C4` (stereo not drawn) [Cycolmorusin, 2], the IC50 was 91.6 µM and 161 µM; the affinity corresponds to a Ki of 46.4 µM. In turn, `O=c1cc(-c2ccc(O)cc2O)oc2cc(O)cc(O)c12` [Norartocarpetin, 5] displayed a Ki of 0.61 µM. In turn, `CC(C)=CCc1c(-c2ccc(O)cc2O)oc2c3c(cc(O)c2c1=O)OC(C)(C)C=C3` [Morusin, 3] showed an IC50 above 300 µM. For the compound `CC(C)=CCc1c(-c2ccc(O)cc2O)oc2c(CC=C(C)C)c(O)cc(O)c2c1=O`, the 50% inhibitory concentration (IC50) is 135 µM and > 300 µM; affinity was put at a Ki of 80.5 µM.
